{
  "source": "patent US7610153B2",
  "about": "“Multi-drug titration and evaluation” (Virginia Commonwealth University, priority 2002, dated 2009)",
  "origin": "cited, not measured here",
  "conditions": "literature",
  "data": [
    {"smiles": "CN(C)C(=N)N=C(N)N", "note": "[metformin]", "values": [
      {"measurement": "hypoglycemia", "value": "does not cause hypoglycemia"},
      {"measurement": "decrease in fasting and postprandial glycemia", "setting": "type 2 diabetes", "value": "60 to 70", "unit": "mg/dL"}
    ]}
  ]
}
